O=C(O)Cc1ccccc1[N+](=O)[O-]
solubility (mole fraction)
Conditions	283.15 K	288.15 K	293.15 K	298.15 K	303.15 K	308.15 K	313.15 K	318.15 K	323.15 K	328.15 K
in ethylene glycol	–	–	–	–	–	0.0337	0.0399	0.0473	0.0561	0.0664
in isobutanol	0.00864	0.0106	0.0134	0.0169	0.0218	0.0271	0.033	0.0394	0.0465	0.0573
in isopropanol	0.0154	0.0182	0.0216	0.0253	0.0302	0.035	0.0414	0.0482	0.0564	0.0665
in methanol	0.0409	0.0455	0.0521	0.0584	0.0673	0.0769	0.0887	0.102	0.117	0.134
in n-butanol	0.0168	0.0198	0.0233	0.0271	0.0323	0.0382	0.0451	0.0533	0.0618	0.0742
in n-propanol	0.0181	0.0219	0.0263	0.0312	0.037	0.0441	0.0533	0.0637	0.0767	0.0934
in water	5.33e-05	7.8e-05	0.000105	0.000141	0.000185	0.000248	0.000321	0.000426	0.000554	0.000727
